Assays:
SIRT-5 = SIRT-5 (Homo sapiens, UniProt Q9NXA8); test: inhibition of sirtuins; type: biochemical
From the text: Inhibition of Sirtuins, matrix metalloproteinase, bromodomains was also confirmed using standard protocols and the results are present in Table 2.

[1] = tested on: human pancreatic cancer xenograft CFPAC-1 cells; test: human pancreatic cancer xenograft CFPAC-1 in scid mice; type: in vivo; settings: CFPAC-1 xenograft
From the text: The results of the anticancer activity are presented in Tables 3 and 4 (above) and in FIG. 6, Hela cells shown at (A) and CMK cells at (B) and MV4-11 and MOLT-14 acute myeloid leukemia cells.

MM.1S (Multiple Myeloma) = test: anticancer cell proliferation assay (WST-1); type: cell-based; settings: 72 hours
Procedure: (§1) Bioactivity of the above-described compounds has been verified by an anticancer cell proliferation assay using the WST-1 (4-[3-(4-iodophenyl)-2-(4-nitrophenyl)-2H-5-tetrazoliol-1, 3-benzene disulfonate) colorimetric assay by Roche Life Sciences®. Anticancer activity was tested against several standard cancer cell lines including brain, breast, Kaposi sarcoma, leukemia, lung, melanoma, tenosynovial giant cell tumor, ovarian, pancreatic, colon and prostate cancer. Cells were trypsinized and plated into 96 well plates in 50 μl of media and incubated overnight. The next day approximately 18 hours after plating, 50 μl of media containing the required flavonoid-based pharmaceutical composition was added per well. Cells were plated at a density so that 72 hours post drug addition, the cells will be in log phase (500-2000 cells/well). The compounds and extracts were solubilized in Dimethyl sulfoxide (DMSO). The cells are allowed to proliferate for 72 hours 37° C. in humidified atmosphere of 5% CO2. The experiment is terminated using WST-1 (Roche®) 10 μl per well and absorbance is read at 450 nm/690 nm. The effect of drugs on growth is assessed as percent of cell viability. The IC50 values were determined from the extract dose versus control growth curves using Graphpad Prism® software. All experiments were carried out in duplicate and the mean results determined.

[2] = tested on: KMS-11 (Multiple myeloma); test: anticancer cell proliferation assay (WST-1); type: cell-based; settings: 72 hours
Procedure: as §1

PDGFRa = biological target: T1, PDGFRa (Homo sapiens, UniProt P16234); test: kinase competition binding assay; settings: Table 1
T1 construct: catalytic domain constructs for large multi-domain kinases; T7 phage fusion (most assays) or DNA tag for qPCR (HEK-293-made kinases); made in house
Procedure: (§2) Cannabis flavonoids and their analogs were subjected to kinase inhibition assay. The compounds were first screened at a single concentration of 10 μM in the primary assay. […]. To determine the kd or IC50 values, competition binding assays were established, authenticated and executed as described previously. Fabian et al., “A Small Molecule-Kinase Interaction Map For Clinical Kinase Inhibitors.”, Nat Biotechnol, 23(3):329-36, Epub (2005). See also, Karaman et al., “A Quantitative Analysis Of Kinase Inhibitor Selectivity”, Nat. Biotechnol. […] For most assays, kinases were fused to T7 phage strains (Fabian, supra) and for the other assays, kinases were produced in HEK-293 cells after which they were tagged with DNA for quantitative PCR detection. In general, full-length constructs were used for small, single domain kinases, and catalytic domain constructs for large multi-domain kinases. The binding assays utilized streptavidin-coated magnetic beads treated with biotinylated small molecule ligands for 30 minutes at room temperature which generated affinity resins for the kinase assays. The liganded beads were blocked with excess biotin and washed with blocking buffer (SeaBlock (Pierce), 1% BSA, 0.05% Tween 20, 1 mM DTT) to remove unbound ligand and to reduce non-specific phage binding. […] Test compounds were prepared as 40× stocks in 100% DMSO and diluted directly into the assay (Final DMSO concentration=2.5%). All reactions were performed in polypropylene 384-well plates in a final volume of 0.04 ml. […] The beads were then re-suspended in elution buffer (1×PBS, 0.05% Tween 20, 0.5 μM non-biotinylated affinity ligand) and incubated at room temperature with shaking for 30 minutes. The kinase concentration in the eluates was measured by quantitative PCR. An illustration of the kinase interaction process is presented below. Kd/IC50 values were determined using a standard dose response curve using the hill equation. Curves were fitted using a non-linear least square fit with the Levenberg-Marquardt algorithm.

BIKE = biological target: T2, BIKE (Homo sapiens, UniProt Q9NSY1); test: kinase competition binding assay; settings: Table 1
T2 construct: full-length constructs were used for small, single domain kinases, and catalytic domain constructs for large multi-domain kinases; T7 phage fusion (most assays) or DNA tag for qPCR (HEK-293-made kinases); made in house
Procedure: as §2

JAK3 = biological target: T3, JAK3 (Homo sapiens, UniProt P52333); test: kinase competition binding assay; settings: Table 1
T3 construct: full-length constructs were used for small, single domain kinases, and catalytic domain constructs for large multi-domain kinases; T7 phage fusion (most assays) or DNA tag for qPCR (HEK-293-made kinases); made in house
Procedure: as §2

MNK2 = biological target: T4, MNK2 (Homo sapiens, UniProt Q9HBH9); test: kinase competition binding assay; settings: Table 1
T4 construct: T7 phage fusion (most assays) or DNA tag for qPCR (HEK-293-made kinases); made in house
Procedure: as §2

c-SRC = biological target: T5, c-SRC (Homo sapiens, UniProt P12931); test: kinase competition binding assay; settings: Table 1
T5 construct: T7 phage fusion (most assays) or DNA tag for qPCR (HEK-293-made kinases); made in house
Procedure: as §2

JAK1 = biological target: T6, JAK1 (Homo sapiens, UniProt P23458); test: kinase competition binding assay; settings: Table 1
T6 construct: full-length constructs were used for small, single domain kinases, and catalytic domain constructs for large multi-domain kinases; T7 phage fusion (most assays) or DNA tag for qPCR (HEK-293-made kinases); made in house
T6 sequence (P23458 whole entry, the tested form may be a part): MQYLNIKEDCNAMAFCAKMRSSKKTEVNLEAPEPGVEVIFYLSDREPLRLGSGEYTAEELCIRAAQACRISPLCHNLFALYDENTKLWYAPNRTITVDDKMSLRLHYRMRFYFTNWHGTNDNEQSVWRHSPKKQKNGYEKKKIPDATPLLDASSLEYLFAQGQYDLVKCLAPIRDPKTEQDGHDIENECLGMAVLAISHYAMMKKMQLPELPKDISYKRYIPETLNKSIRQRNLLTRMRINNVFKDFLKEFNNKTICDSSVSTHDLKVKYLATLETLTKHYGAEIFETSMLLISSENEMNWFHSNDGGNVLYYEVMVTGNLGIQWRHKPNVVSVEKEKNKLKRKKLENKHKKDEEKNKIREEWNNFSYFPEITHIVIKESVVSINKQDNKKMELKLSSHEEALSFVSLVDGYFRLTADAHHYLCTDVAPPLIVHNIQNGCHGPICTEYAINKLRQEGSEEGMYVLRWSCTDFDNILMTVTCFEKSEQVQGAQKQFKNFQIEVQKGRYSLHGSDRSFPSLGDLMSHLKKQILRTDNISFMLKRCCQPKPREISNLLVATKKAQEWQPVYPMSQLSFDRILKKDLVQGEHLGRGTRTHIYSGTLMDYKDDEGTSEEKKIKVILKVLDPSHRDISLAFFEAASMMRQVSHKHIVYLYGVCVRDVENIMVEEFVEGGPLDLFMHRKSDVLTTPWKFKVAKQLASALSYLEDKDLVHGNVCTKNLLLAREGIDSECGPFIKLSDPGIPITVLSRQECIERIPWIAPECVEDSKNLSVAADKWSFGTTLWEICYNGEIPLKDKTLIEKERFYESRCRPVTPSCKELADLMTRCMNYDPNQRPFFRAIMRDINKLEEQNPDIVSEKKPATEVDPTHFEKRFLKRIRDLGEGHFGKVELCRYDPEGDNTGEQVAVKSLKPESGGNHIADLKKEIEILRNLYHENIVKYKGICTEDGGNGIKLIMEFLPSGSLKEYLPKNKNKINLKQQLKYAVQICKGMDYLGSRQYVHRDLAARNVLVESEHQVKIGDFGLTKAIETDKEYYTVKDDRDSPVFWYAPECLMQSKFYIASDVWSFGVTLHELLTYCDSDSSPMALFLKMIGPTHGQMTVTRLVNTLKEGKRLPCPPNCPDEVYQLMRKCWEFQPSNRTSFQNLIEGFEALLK
Procedure: as §2

DRAK2 = biological target: T7, DRAK2 (Homo sapiens, UniProt O94768); test: kinase competition binding assay; settings: Table 1
T7 construct: full-length constructs were used for small, single domain kinases, and catalytic domain constructs for large multi-domain kinases; T7 phage fusion (most assays) or DNA tag for qPCR (HEK-293-made kinases); made in house
T7 sequence (O94768 whole entry, the tested form may be a part): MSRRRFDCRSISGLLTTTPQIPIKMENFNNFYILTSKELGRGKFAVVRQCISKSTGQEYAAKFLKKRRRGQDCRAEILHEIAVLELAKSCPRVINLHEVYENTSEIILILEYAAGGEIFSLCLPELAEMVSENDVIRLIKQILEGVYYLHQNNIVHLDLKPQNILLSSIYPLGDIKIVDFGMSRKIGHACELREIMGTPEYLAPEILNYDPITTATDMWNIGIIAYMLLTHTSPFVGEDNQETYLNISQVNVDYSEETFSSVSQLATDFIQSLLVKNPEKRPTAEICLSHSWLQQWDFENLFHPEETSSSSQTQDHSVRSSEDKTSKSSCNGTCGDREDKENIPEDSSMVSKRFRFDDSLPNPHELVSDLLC
Procedure: as §2

PIK3CA(1800L) = biological target: T8, PIK3CA(1800L) (Homo sapiens, UniProt P42336, I800L); test: kinase competition binding assay; settings: Table 1
T8 construct: T7 phage fusion (most assays) or DNA tag for qPCR (HEK-293-made kinases); made in house
T8 sequence (P42336 whole entry I800L, the tested form may be a part): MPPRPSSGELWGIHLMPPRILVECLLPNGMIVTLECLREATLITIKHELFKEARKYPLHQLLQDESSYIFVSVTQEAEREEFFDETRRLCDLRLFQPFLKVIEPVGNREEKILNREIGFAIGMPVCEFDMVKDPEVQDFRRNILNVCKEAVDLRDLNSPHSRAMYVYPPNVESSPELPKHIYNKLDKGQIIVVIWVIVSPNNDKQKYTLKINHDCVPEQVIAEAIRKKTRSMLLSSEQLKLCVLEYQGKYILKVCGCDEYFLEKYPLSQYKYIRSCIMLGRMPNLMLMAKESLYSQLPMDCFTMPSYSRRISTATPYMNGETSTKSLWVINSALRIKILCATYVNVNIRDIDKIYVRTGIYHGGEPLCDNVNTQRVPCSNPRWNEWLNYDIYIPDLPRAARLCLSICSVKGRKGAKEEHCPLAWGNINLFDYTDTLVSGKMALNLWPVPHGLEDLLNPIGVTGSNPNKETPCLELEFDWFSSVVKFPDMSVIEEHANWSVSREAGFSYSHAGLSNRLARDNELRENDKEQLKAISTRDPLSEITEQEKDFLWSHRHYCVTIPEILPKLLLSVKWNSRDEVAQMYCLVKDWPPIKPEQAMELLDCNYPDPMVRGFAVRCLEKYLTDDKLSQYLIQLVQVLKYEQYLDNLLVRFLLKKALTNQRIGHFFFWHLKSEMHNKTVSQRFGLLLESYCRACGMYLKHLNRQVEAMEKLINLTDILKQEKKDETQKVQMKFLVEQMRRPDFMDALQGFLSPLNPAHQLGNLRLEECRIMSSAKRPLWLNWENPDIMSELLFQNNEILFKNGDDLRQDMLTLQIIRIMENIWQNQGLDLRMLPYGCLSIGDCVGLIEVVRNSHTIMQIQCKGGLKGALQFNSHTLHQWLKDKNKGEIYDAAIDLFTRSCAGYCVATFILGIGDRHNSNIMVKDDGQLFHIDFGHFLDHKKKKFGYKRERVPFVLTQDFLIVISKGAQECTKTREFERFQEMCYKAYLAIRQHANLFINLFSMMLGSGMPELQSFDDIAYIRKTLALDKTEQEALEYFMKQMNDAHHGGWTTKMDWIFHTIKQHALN
Procedure: as §2

JAK2 = biological target: T9, JAK2 (Homo sapiens, UniProt O60674); test: kinase competition binding assay; settings: Table 1
T9 construct: full-length constructs were used for small, single domain kinases, and catalytic domain constructs for large multi-domain kinases; T7 phage fusion (most assays) or DNA tag for qPCR (HEK-293-made kinases); made in house
T9 sequence (O60674 whole entry, the tested form may be a part): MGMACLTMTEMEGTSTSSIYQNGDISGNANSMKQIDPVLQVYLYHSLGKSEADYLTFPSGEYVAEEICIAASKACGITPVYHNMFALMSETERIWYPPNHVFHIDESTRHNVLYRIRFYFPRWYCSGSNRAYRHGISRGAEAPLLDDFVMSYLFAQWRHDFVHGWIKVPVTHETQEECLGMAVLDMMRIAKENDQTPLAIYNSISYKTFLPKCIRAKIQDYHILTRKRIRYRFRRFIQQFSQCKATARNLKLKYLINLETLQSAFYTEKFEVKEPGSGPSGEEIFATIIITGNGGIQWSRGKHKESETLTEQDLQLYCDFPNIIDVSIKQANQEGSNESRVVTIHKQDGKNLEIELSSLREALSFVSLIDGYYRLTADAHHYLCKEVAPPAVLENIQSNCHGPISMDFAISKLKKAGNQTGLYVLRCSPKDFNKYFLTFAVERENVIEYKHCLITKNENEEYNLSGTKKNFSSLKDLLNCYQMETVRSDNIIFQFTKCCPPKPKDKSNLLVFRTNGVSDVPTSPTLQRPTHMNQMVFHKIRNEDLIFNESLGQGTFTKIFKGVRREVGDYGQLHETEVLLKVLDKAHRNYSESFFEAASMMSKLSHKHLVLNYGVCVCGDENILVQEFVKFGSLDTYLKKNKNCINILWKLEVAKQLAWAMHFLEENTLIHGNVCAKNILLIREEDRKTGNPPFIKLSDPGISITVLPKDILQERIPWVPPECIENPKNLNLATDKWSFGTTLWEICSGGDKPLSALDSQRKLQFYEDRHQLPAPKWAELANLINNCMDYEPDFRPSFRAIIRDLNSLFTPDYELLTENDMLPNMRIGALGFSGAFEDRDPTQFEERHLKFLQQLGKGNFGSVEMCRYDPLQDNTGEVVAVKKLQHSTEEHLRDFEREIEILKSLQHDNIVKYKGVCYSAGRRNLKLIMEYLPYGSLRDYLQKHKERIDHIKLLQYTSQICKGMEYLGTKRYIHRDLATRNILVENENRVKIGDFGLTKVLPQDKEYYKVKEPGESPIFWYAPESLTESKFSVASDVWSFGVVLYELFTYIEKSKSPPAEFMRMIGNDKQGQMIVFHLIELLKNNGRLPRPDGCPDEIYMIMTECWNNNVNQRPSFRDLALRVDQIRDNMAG
Procedure: as §2

PDGFRa(T6741) = biological target: T10, PDGFRa(T6741) (Homo sapiens, UniProt P16234, T674I); test: kinase competition binding assay; settings: Table 1
T10 construct: catalytic domain constructs for large multi-domain kinases; T7 phage fusion (most assays) or DNA tag for qPCR (HEK-293-made kinases); made in house
Procedure: as §2

FLT3(D835V) = biological target: T11, FLT3(D835V) (Homo sapiens, UniProt P36888, D835V); test: kinase competition binding assay; settings: Table 1
T11 construct: full-length constructs were used for small, single domain kinases, and catalytic domain constructs for large multi-domain kinases; T7 phage fusion (most assays) or DNA tag for qPCR (HEK-293-made kinases); made in house
Procedure: as §2

PIP5K1A = biological target: T12, PIP5K1A (Homo sapiens, UniProt Q99755); test: kinase competition binding assay; settings: Table 1
T12 construct: T7 phage fusion (most assays) or DNA tag for qPCR (HEK-293-made kinases); made in house
T12 sequence (Q99755 whole entry, the tested form may be a part): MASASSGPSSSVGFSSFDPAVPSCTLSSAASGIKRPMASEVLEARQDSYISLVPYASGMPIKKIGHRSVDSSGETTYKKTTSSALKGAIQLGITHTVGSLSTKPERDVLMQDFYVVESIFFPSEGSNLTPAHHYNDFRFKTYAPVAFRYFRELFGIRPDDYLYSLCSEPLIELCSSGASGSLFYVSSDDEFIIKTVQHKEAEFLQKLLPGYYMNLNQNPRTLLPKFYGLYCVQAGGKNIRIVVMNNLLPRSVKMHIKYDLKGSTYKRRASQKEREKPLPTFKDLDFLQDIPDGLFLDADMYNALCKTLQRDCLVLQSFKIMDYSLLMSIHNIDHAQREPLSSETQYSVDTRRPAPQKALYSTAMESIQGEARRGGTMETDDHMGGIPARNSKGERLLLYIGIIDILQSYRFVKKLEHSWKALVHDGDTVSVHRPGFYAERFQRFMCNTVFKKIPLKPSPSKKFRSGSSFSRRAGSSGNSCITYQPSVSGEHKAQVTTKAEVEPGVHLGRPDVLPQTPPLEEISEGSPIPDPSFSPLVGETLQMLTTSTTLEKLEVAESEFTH
Procedure: as §2

Yes/yes1 = biological target: T13, Yes/yes1 (Homo sapiens, UniProt P07947); test: kinase competition binding assay; settings: Table 1
T13 construct: T7 phage fusion (most assays) or DNA tag for qPCR (HEK-293-made kinases); made in house
Procedure: as §2

MEK5 = biological target: T14, MEK5 (Homo sapiens, UniProt Q13163); test: kinase competition binding assay; settings: Table 1
T14 construct: T7 phage fusion (most assays) or DNA tag for qPCR (HEK-293-made kinases); made in house
Procedure: as §2

MELK = biological target: T15, MELK (Homo sapiens, UniProt Q14680); test: kinase competition binding assay; settings: Table 1
T15 construct: full-length constructs were used for small, single domain kinases, and catalytic domain constructs for large multi-domain kinases; T7 phage fusion (most assays) or DNA tag for qPCR (HEK-293-made kinases); made in house
Procedure: as §2

PIK4CB = biological target: T16, PIK4CB (Homo sapiens, UniProt Q9UBF8); test: kinase competition binding assay; settings: Table 1
T16 construct: T7 phage fusion (most assays) or DNA tag for qPCR (HEK-293-made kinases); made in house
T16 sequence (Q9UBF8 whole entry, the tested form may be a part): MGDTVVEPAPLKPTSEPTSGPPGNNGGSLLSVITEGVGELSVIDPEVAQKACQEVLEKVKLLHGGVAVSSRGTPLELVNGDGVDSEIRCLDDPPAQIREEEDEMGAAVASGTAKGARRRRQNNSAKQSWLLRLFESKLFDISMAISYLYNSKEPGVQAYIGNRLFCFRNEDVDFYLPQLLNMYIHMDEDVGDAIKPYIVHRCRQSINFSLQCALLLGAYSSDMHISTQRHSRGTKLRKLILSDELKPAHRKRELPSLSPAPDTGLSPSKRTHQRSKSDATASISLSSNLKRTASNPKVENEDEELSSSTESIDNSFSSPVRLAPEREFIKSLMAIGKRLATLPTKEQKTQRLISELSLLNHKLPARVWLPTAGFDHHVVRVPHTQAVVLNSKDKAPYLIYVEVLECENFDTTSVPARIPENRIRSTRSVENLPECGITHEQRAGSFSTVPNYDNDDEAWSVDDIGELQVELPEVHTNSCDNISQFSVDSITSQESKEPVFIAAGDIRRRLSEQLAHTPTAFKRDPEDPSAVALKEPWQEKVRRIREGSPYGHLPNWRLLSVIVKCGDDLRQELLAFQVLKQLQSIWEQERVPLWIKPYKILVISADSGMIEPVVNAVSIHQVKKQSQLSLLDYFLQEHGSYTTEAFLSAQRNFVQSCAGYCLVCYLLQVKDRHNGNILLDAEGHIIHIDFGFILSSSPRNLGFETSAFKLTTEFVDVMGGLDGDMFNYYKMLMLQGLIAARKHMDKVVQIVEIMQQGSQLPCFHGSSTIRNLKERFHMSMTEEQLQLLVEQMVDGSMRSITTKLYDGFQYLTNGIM
Procedure: as §2

TXK = biological target: T17, TXK (Homo sapiens, UniProt P42681); test: kinase competition binding assay; settings: Table 1
T17 construct: T7 phage fusion (most assays) or DNA tag for qPCR (HEK-293-made kinases); made in house
Procedure: as §2

SRC = biological target: T18, SRC (Homo sapiens, UniProt P12931); test: kinase competition binding assay; settings: Table 1
T18 construct: T7 phage fusion (most assays) or DNA tag for qPCR (HEK-293-made kinases); made in house
Procedure: as §2

MV4-11 (Leukemia) = test: anticancer cell proliferation assay (WST-1); type: cell-based; settings: Table 3; 72 hours, WST-1; read-out: IC50 MV4-11 (Leukemia)
Procedure: as §1, with “Anticancer” for “Bioactivity of the above-described compounds has been verified by an anticancer cell proliferation assay using the WST-1 (4-[3-(4-iodophenyl)-2-(4-nitrophenyl)-2H-5-tetrazoliol-1, 3-benzene disulfonate) colorimetric assay by Roche Life Sciences®. Anticancer”

FLT3(ITD) = biological target: T19, FLT3(ITD) (Homo sapiens, UniProt P36888); type: binding; settings: Table 1
T19 construct: In general, full-length constructs were used for small, single domain kinases, and catalytic domain constructs for large multi-domain kinases; fused on or other part: T7 phage fusion or DNA tag for qPCR detection
Procedure: Cannabis flavonoids and their analogs were subjected to kinase inhibition assay. The compounds were first screened at a single concentration of 10 μM in the primary assay. […] To determine the kd or IC50 values, competition binding assays were established, authenticated and executed as described previously. […] See also, Karaman et al., “A Quantitative Analysis Of Kinase Inhibitor Selectivity”, Nat. Biotechnol. […] For most assays, kinases were fused to T7 phage strains (Fabian, supra) and for the other assays, kinases were produced in HEK-293 cells after which they were tagged with DNA for quantitative PCR detection. In general, full-length constructs were used for small, single domain kinases, and catalytic domain constructs for large multi-domain kinases. […] The liganded beads were blocked with excess biotin and washed with blocking buffer (SeaBlock (Pierce), 1% BSA, 0.05% Tween 20, 1 mM DTT) to remove unbound ligand and to reduce non-specific phage binding. […] All reactions were performed in polypropylene 384-well plates in a final volume of 0.04 ml. […] The kinase concentration in the eluates was measured by quantitative PCR. An illustration of the kinase interaction process is presented below. Kd/IC50 values were determined using a standard dose response curve using the hill equation. Curves were fitted using a non-linear least square fit with the Levenberg-Marquardt algorithm.

Which IC50 (SIRT-5) does the source give for COc1cc(-c2cc(=O)c3c(O)c(C/C=C(\C)CCC=C(C)C)c(O)cc3o2)ccc1O [FBL-03A] here?
Its IC50 is 123000 nM.

Which “inhibition of tumor compared to the control” value [1] does the source give for COc1cc(-c2cc(=O)c3c(O)c(CC=C(C)C)c(O)cc3o2)ccc1O [FBL-03B] here?
The value was “significant inhibition of tumor”.

COc1cc(-c2cc(=O)c3c(O)cc(O)c(CC=C(C)C)c3o2)ccc1O [FBL-03G, Caflanone] was tested. Which IC50 (MM.1S (Multiple Myeloma)) did it give?
Its IC50 is 950 nM.

What about the IC50 [2] of the same compound?
The IC50 was 64.7 nM.

What about the IC50 (PDGFRa) of the same compound?
The IC50 was 698 nM.

And the IC50 (BIKE)?
Its IC50 is 81 nM.

And the IC50 (JAK3)?
The IC50 was 5.58 nM.

And the IC50 (MNK2)?
The IC50 was 549 nM.

And the IC50 (c-SRC)?
Its IC50 is 1100 nM.

What about the IC50 (JAK1) of the same compound?
The IC50 was 644 nM.

What about the IC50 (DRAK2) of the same compound?
Its IC50 is 1400 nM.

And the IC50 (PIK3CA(1800L))?
Its IC50 is 125 nM.

And the IC50 (JAK2)?
The IC50 was 1850 nM.

What about the IC50 (PDGFRa(T6741)) of the same compound?
Its IC50 is 1670 nM.

What about the IC50 (FLT3(D835V)) of the same compound?
The IC50 was 12.5 nM.

And the IC50 (PIP5K1A)?
Its IC50 is 320 nM.

What about the IC50 (Yes/yes1) of the same compound?
The IC50 was 294 nM.

And the IC50 (MEK5)?
The IC50 was 190 nM.

What about the IC50 (MELK) of the same compound?
The IC50 was 88.9 nM.

And the IC50 (PIK4CB)?
The IC50 was 136 nM.

And the IC50 (TXK)?
Its IC50 is 164 nM.

What about the IC50 (SRC) of the same compound?
The IC50 was 1700 nM.

What about the “inhibition of tumor compared to the control” value [1] of the same compound?
Its value is “significant inhibition of tumor”.

What about the IC50 (MV4-11 (Leukemia)) of the same compound?
Its IC50 is 38.6 nM.

What about the IC50 (FLT3(ITD)) of the same compound?
Its IC50 is 38.2 nM.

From patent US20210121437A1, “[…] AGENTS […] FLAVONOID DERIVATIVES TARGETING KINASES, SIRTUINS AND ONCOGENIC AGENTS FOR THE TREATMENT OF MULTIPLE MYELOMA, LYMPHOMA, AND […]” (priority 2015, published 2021)
